Measurements from ChEMBL document CHEMBL1155426, “Discovery of a novel series of semisynthetic vancomycin derivatives effective against vancomycin-resistant bacteria” (J Med Chem, 2010).
In brackets after ≈: the same amount, converted by molar mass.

Tests used:
Staphylococcus aureus [1] = experiment: Antibacterial activity against vancomycin-susceptible Staphylococcus aureus RN4220; format: functional
Staphylococcus aureus [2] = experiment: Antibacterial activity against methicillin-resistant vancomycin-susceptible Staphylococcus aureus SR-3637; format: functional; settings: SR3637
Staphylococcus aureus [3] = experiment: Antibacterial activity against vancomycin A-resistant Staphylococcus aureus VRS2; format: functional
Enterococcus faecium [4] = experiment: Antibacterial activity against vancomycin-susceptible Enterococcus faecium SR-16972; format: functional; settings: SR16972
Enterococcus faecium [5] = experiment: Antibacterial activity against vancomycin A-resistant Enterococcus faecium SR-7940; format: functional; settings: SR7940
Enterococcus faecium [6] = experiment: Antibacterial activity against vancomycin B-resistant Enterococcus faecium SR-23598; format: functional; settings: SR23598
Enterococcus faecalis [7] = experiment: Antibacterial activity against vancomycin-susceptible Enterococcus faecalis SR1004; format: functional
Enterococcus faecalis [8] = experiment: Antibacterial activity against vancomycin A-resistant Enterococcus faecalis SR-7914; format: functional; settings: SR7914
Enterococcus faecalis [9] = experiment: Antibacterial activity against vancomycin B-resistant Enterococcus faecalis SR-23630; format: functional; settings: SR23630
[10] = Binding affinity to 8-Amino-octanoyl-D-Ala-D-Ala peptide by surface plasmon resonance

| SMILES | MIC (Staphylococcus aureus [1]) [µg/mL] | MIC (Staphylococcus aureus [2]) [µg/mL] | MIC (Staphylococcus aureus [3]) [µg/mL] | MIC (Enterococcus faecium [4]) [µg/mL] | MIC (Enterococcus faecium [5]) [µg/mL] | MIC (Enterococcus faecium [6]) [µg/mL] | MIC (Enterococcus faecalis [7]) [µg/mL] | MIC (Enterococcus faecalis [8]) [µg/mL] | MIC (Enterococcus faecalis [9]) [µg/mL] | Kd [10] [µM] |
| --- | --- | --- | --- | --- | --- | --- | --- | --- | --- | --- |
| CCCCCC/C=C/c1cc2ccc1Oc1cc3cc(c1O[C@@H]1O[C@H](CO)[C@@H](O)[C@H](O)[C@H]1O[C@H]1C[C@](C)(N)[C@H](O)[C@H](C)O1)Oc1ccc(cc1/C=C/CCCCCC)[C@@H](O)[C@@H](NC(=O)[C@@H](CC(C)C)NC)C(=O)N[C@@H](CC(N)=O)C(=O)N[C@H]3C(=O)N[C@H]1C(=O)N[C@H](C(=O)N[C@H](C(=O)O)c3cc(O)cc(O)c3-c3cc1ccc3O)[C@@H]2O | 32 (≈ 20 µM) | 64 (≈ 40 µM) | > 64 | 32 (≈ 20 µM) | > 64 | > 64 | 32 (≈ 20 µM) | > 64 | > 64 | 11.6 |
| CN[C@H](CC(C)C)C(=O)N[C@H]1C(=O)N[C@@H](CC(N)=O)C(=O)N[C@H]2C(=O)N[C@H]3C(=O)N[C@H](C(=O)N[C@H](C(=O)O)c4cc(O)cc(O)c4-c4cc3ccc4O)[C@H](O)c3ccc(c(/C=C/CCCc4ccccc4)c3)Oc3cc2cc(c3O[C@@H]2O[C@H](CO)[C@@H](O)[C@H](O)[C@H]2O[C@H]2C[C@](C)(N)[C@H](O)[C@H](C)O2)Oc2ccc(cc2/C=C/CCCc2ccccc2)[C@H]1O | 32 (≈ 19.2 µM) | 64 (≈ 38.4 µM) | > 64 | 32 (≈ 19.2 µM) | > 64 | > 64 | 32 (≈ 19.2 µM) | > 64 | > 64 |  |
| CN[C@H](CC(C)C)C(=O)N[C@H]1C(=O)N[C@@H](CC(N)=O)C(=O)N[C@H]2C(=O)N[C@H]3C(=O)N[C@H](C(=O)N[C@H](C(=O)O)c4cc(O)cc(O)c4-c4cc3ccc4O)[C@H](O)c3ccc(c(-c4ccccc4OC)c3)Oc3cc2cc(c3O[C@@H]2O[C@H](CO)[C@@H](O)[C@H](O)[C@H]2O[C@H]2C[C@](C)(N)[C@H](O)[C@H](C)O2)Oc2ccc(cc2Cl)[C@H]1O | 4 (≈ 2.63 µM) | 8 (≈ 5.26 µM) | 64 (≈ 42.1 µM) | 4 (≈ 2.63 µM) | > 64 | > 64 | 8 (≈ 5.26 µM) | > 64 | > 64 |  |
| CN[C@H](CC(C)C)C(=O)N[C@H]1C(=O)N[C@@H](CC(N)=O)C(=O)N[C@H]2C(=O)N[C@H]3C(=O)N[C@H](C(=O)N[C@H](C(=O)O)c4cc(O)cc(O)c4-c4cc3ccc4O)[C@H](O)c3ccc(c(/C=C/c4ccccc4)c3)Oc3cc2cc(c3O[C@@H]2O[C@H](CO)[C@@H](O)[C@H](O)[C@H]2O[C@H]2C[C@](C)(N)[C@H](O)[C@H](C)O2)Oc2ccc(cc2Cl)[C@H]1O | 1 (≈ 0.659 µM) | 2 (≈ 1.32 µM) | 16 (≈ 10.5 µM) | 1 (≈ 0.659 µM) | > 64 | > 64 | 1 (≈ 0.659 µM) | > 64 | 64 (≈ 42.2 µM) |  |
| CN[C@H](CC(C)C)C(=O)N[C@H]1C(=O)N[C@@H](CC(N)=O)C(=O)N[C@H]2C(=O)N[C@H]3C(=O)N[C@H](C(=O)N[C@H](C(=O)O)c4cc(O)cc(O)c4-c4cc3ccc4O)[C@H](O)c3ccc(c(/C=C/c4ccc(OC)cc4)c3)Oc3cc2cc(c3O[C@@H]2O[C@H](CO)[C@@H](O)[C@H](O)[C@H]2O[C@H]2C[C@](C)(N)[C@H](O)[C@H](C)O2)Oc2ccc(cc2Cl)[C@H]1O | 1 (≈ 0.646 µM) | 2 (≈ 1.29 µM) | 16 (≈ 10.3 µM) | 1 (≈ 0.646 µM) | > 64 | > 64 | 1 (≈ 0.646 µM) | > 64 | 32 (≈ 20.7 µM) |  |
| CN[C@H](CC(C)C)C(=O)N[C@H]1C(=O)N[C@@H](CC(N)=O)C(=O)N[C@H]2C(=O)N[C@H]3C(=O)N[C@H](C(=O)N[C@H](C(=O)O)c4cc(O)cc(O)c4-c4cc3ccc4O)[C@H](O)c3ccc(c(/C=C/c4ccc(C(F)(F)F)cc4)c3)Oc3cc2cc(c3O[C@@H]2O[C@H](CO)[C@@H](O)[C@H](O)[C@H]2O[C@H]2C[C@](C)(N)[C@H](O)[C@H](C)O2)Oc2ccc(cc2Cl)[C@H]1O | 1 (≈ 0.631 µM) | 2 (≈ 1.26 µM) | 64 (≈ 40.4 µM) | 1 (≈ 0.631 µM) | > 64 | 32 (≈ 20.2 µM) | 1 (≈ 0.631 µM) | 64 (≈ 40.4 µM) | 2 (≈ 1.26 µM) |  |
| CN[C@H](CC(C)C)C(=O)N[C@H]1C(=O)N[C@@H](CC(N)=O)C(=O)N[C@H]2C(=O)N[C@H]3C(=O)N[C@H](C(=O)N[C@H](C(=O)O)c4cc(O)cc(O)c4-c4cc3ccc4O)[C@H](O)c3ccc(c(-c4ccccc4)c3)Oc3cc2cc(c3O[C@@H]2O[C@H](CO)[C@@H](O)[C@H](O)[C@H]2O[C@H]2C[C@](C)(N)[C@H](O)[C@H](C)O2)Oc2ccc(cc2Cl)[C@H]1O | 4 (≈ 2.68 µM) | 4 (≈ 2.68 µM) | 64 (≈ 42.9 µM) | 2 (≈ 1.34 µM) | > 64 | > 64 | 4 (≈ 2.68 µM) | > 64 | 64 (≈ 42.9 µM) |  |
| CN[C@H](CC(C)C)C(=O)N[C@H]1C(=O)N[C@@H](CC(N)=O)C(=O)N[C@H]2C(=O)N[C@H]3C(=O)N[C@H](C(=O)N[C@H](C(=O)O)c4cc(O)cc(O)c4-c4cc3ccc4O)[C@H](O)c3ccc(c(-c4ccc(OC)cc4)c3)Oc3cc2cc(c3O[C@@H]2O[C@H](CO)[C@@H](O)[C@H](O)[C@H]2O[C@H]2C[C@](C)(N)[C@H](O)[C@H](C)O2)Oc2ccc(cc2Cl)[C@H]1O | 4 (≈ 2.63 µM) | 4 (≈ 2.63 µM) | > 64 | 2 (≈ 1.31 µM) | > 64 | > 64 | 4 (≈ 2.63 µM) | > 64 | > 64 |  |
| CCCCCC/C=C/c1cc2ccc1Oc1cc3cc(c1O[C@@H]1O[C@H](CO)[C@@H](O)[C@H](O)[C@H]1O[C@H]1C[C@](C)(N)[C@H](O)[C@H](C)O1)Oc1ccc(cc1Cl)[C@@H](O)[C@@H](NC(=O)[C@@H](CC(C)C)NC)C(=O)N[C@@H](CC(N)=O)C(=O)N[C@H]3C(=O)N[C@H]1C(=O)N[C@H](C(=O)N[C@H](C(=O)O)c3cc(O)cc(O)c3-c3cc1ccc3O)[C@@H]2O | 1 (≈ 0.656 µM) | 2 (≈ 1.31 µM) | > 64 | 2 (≈ 1.31 µM) | > 64 | > 64 | 2 (≈ 1.31 µM) | > 64 | > 64 | 3.77 |
| CN[C@H](CC(C)C)C(=O)N[C@H]1C(=O)N[C@@H](CC(N)=O)C(=O)N[C@H]2C(=O)N[C@H]3C(=O)N[C@H](C(=O)N[C@H](C(=O)O)c4cc(O)cc(O)c4-c4cc3ccc4O)[C@H](O)c3ccc(c(/C=C/CCCc4ccccc4)c3)Oc3cc2cc(c3O[C@@H]2O[C@H](CO)[C@@H](O)[C@H](O)[C@H]2O[C@H]2C[C@](C)(N)[C@H](O)[C@H](C)O2)Oc2ccc(cc2Cl)[C@H]1O | 1 (≈ 0.641 µM) | 2 (≈ 1.28 µM) | > 64 | 2 (≈ 1.28 µM) | > 64 | > 64 | 1 (≈ 0.641 µM) | > 64 | > 64 |  |
| CN[C@H](CC(C)C)C(=O)N[C@H]1C(=O)N[C@@H](CC(N)=O)C(=O)N[C@H]2C(=O)N[C@H]3C(=O)N[C@H](C(=O)N[C@H](C(=O)O)c4cc(O)cc(O)c4-c4cc3ccc4O)[C@H](O)c3ccc(c(/C=C/c4ccc(-c5ccccc5)cc4)c3)Oc3cc2cc(c3O[C@@H]2O[C@H](CO)[C@@H](O)[C@H](O)[C@H]2O[C@H]2C[C@](C)(N)[C@H](O)[C@H](C)O2)Oc2ccc(cc2Cl)[C@H]1O | 0.25 (≈ 0.157 µM) | 0.5 (≈ 0.314 µM) | > 64 | 0.25 (≈ 0.157 µM) | 64 (≈ 40.2 µM) | 0.5 (≈ 0.314 µM) | 0.25 (≈ 0.157 µM) | 32 (≈ 20.1 µM) | 2 (≈ 1.26 µM) |  |
| C/C=C/c1cc2ccc1Oc1cc3cc(c1O[C@@H]1O[C@H](CO)[C@@H](O)[C@H](O)[C@H]1O[C@H]1C[C@](C)(N)[C@H](O)[C@H](C)O1)Oc1ccc(cc1/C=C/C)[C@@H](O)[C@@H](NC(=O)[C@@H](CC(C)C)NC)C(=O)N[C@@H](CC(N)=O)C(=O)N[C@H]3C(=O)N[C@H]1C(=O)N[C@H](C(=O)N[C@H](C(=O)O)c3cc(O)cc(O)c3-c3cc1ccc3O)[C@@H]2O | 1 (≈ 0.685 µM) | 2 (≈ 1.37 µM) | 64 (≈ 43.8 µM) | 1 (≈ 0.685 µM) | > 64 | > 64 | 2 (≈ 1.37 µM) | > 64 | > 64 |  |
| C/C=C/c1cc2ccc1Oc1cc3cc(c1O[C@@H]1O[C@H](CO)[C@@H](O)[C@H](O)[C@H]1O[C@H]1C[C@](C)(N)[C@H](O)[C@H](C)O1)Oc1ccc(cc1/C=C/CCCCCC)[C@@H](O)[C@@H]1NC(=O)[C@H](NC(=O)[C@@H]3NC(=O)[C@H](CC(N)=O)NC(=O)[C@H](NC(=O)[C@@H](CC(C)C)NC)[C@@H]2O)c2ccc(O)c(c2)-c2c(O)cc(O)cc2[C@@H](C(=O)O)NC1=O | 32 (≈ 20.9 µM) | 64 (≈ 41.8 µM) | > 64 | 32 (≈ 20.9 µM) | > 64 | > 64 | 32 (≈ 20.9 µM) | > 64 | > 64 |  |
| CN[C@H](CC(C)C)C(=O)N[C@H]1C(=O)N[C@@H](CC(N)=O)C(=O)N[C@H]2C(=O)N[C@H]3C(=O)N[C@H](C(=O)N[C@H](C(=O)O)c4cc(O)cc(O)c4-c4cc3ccc4O)[C@H](O)c3ccc(c(Cl)c3)Oc3cc2cc(c3O[C@@H]2O[C@H](CO)[C@@H](O)[C@H](O)[C@H]2O[C@H]2C[C@](C)(N)[C@H](O)[C@H](C)O2)Oc2ccc(cc2Cl)[C@H]1O [VANCOMYCIN] |  |  | > 64 |  | > 64 | > 64 | 2 (≈ 1.38 µM) | > 64 |  | 3.39 |
